Data on two compounds can be found in patent publication US20090221588A1, “FUNGICIDAL COMPOSITIONS” (SYNGENTA CROP PROTECTION, INC., priority 2006, published 2009).

Experiment [1] deals with Pseudocercosporella herpotrichoides var. acuformis. In words: Action against Pseudocercosporella herpotrichoides var. acuformis (eyespot/cereals): growth inhibition in nutrient broth, microtiter plate, photometric. The experiment is classed as cell-based. Particulars: single active ingredient, 24° C., 72 hrs. The source says:
(§1) The action to be expected E for a given active ingredient combination obeys the so-called COLBY formula and can be calculated as follows (COLBY, S. R. “Calculating synergistic and antagonistic responses of herbicide combination”. Weeds, Vol. 15, pages 20-22; 1967): ppm=milligrams of active ingredient (=a.i.) per liter of spray mixture X=% action by active ingredient A) using p ppm of active ingredient Y=% action by active ingredient B) using q ppm of active ingredient. According to COLBY, the expected (additive) action of active ingredients A)+B) using p+q ppm of active ingredient is If the action actually observed (O) is greater than the expected action (E), then the action of the combination is super-additive, i.e. there is a synergistic effect. In mathematical terms, synergism corresponds to a positive value for the difference of (O-E). In the case of purely complementary addition of activities (expected activity), said difference (O-E) is zero. A negative value of said difference (O-E) signals a loss of activity compared to the expected activity. In the following examples a specific compound of formula (I) was used. Said compound of formula (I) was a mixture of the racemic syn- and anti-compound of formula (I), in a syn/anti-ratio of 9:1. Conidia of the fungus from cryogenic storage are directly mixed into nutrient broth (PDB potato dextrose broth). After placing a (DMSO) solution of the test compounds into a microtiter plate (96-well format) the nutrient broth containing the fungal spores is added. […] The fungicide interactions in the combinations are calculated according to COLBY method.

A further experiment concerns Septoria tritici. In words: Action against Septoria tritici: growth inhibition in nutrient broth, microtiter plate, photometric. The experiment is classed as cell-based. Particulars: single active ingredient, 24° C., 72 hrs.
Excerpt: as §1

With `CC(C)C1C2CCC1c1c(NC(=O)c3cn(C)nc3C(F)F)cccc12` (racemic) [Cpd I, 3-difluoromethyl-1-methyl-1H-pyrazole-4-carboxylic acid (9-isopropyl-1,2,3,4-tetrahydro-1,4-methano-naphthalen-5-yl)-amide], the “Observed control in % (% Cobs)” value in experiment [1] (0.016 ppm [mg/L] final medium) is 12%; in experiment [1] (0.031 ppm [mg/L] final medium) it was 40%; in experiment [1] (0.063 ppm [mg/L] final medium) it was 67%; with Septoria tritici (0.063 ppm [mg/L] final medium), 26%; in the experiment with Septoria tritici (0.125 ppm [mg/L] final medium), 52%.

On to `O=C(NCCc1ncc(C(F)(F)F)cc1Cl)c1ccccc1C(F)(F)F` [Cpd B-1.1, fluopyram], for which the “Observed control in % (% Cobs)” value in experiment [1] (0.016 ppm [mg/L] final medium) was determined as 1%; in experiment [1] (0.031 ppm [mg/L] final medium), 3%; in experiment [1] (0.063 ppm [mg/L] final medium), 14%; in the experiment with Septoria tritici (0.063 ppm [mg/L] final medium), 6%; in the experiment with Septoria tritici (0.125 ppm [mg/L] final medium), 0%.
